Biological target: T1, γ-secretase (Homo sapiens, UniProt P49768)
T1 construct: uses a HEK293 membrane fraction as a source of γ-secretase; endogenous in cells; host or cells: HEK293 (microsomal membrane fraction, solubilised in 0.25% CHAPSO)
Assay: in vitro γ-secretase assay (HEK293 membrane fraction, recombinant APP substrate, Abeta ELISA)
Assay type: biochemical
Conditions: γ-secretase inhibition
Description: Description of γ-Secretase Assay
The activity of test compounds can be evaluated in assays which measure the proteolytic cleavage of suitable substrates by γ-secretase activity. These can be cellular assays where e.g., a substrate of the γ-secretase is fused in its cytoplasmic domain to a transcription factor. Cells are transfected with this fusion gene and a reporter gene, e.g., firefly luciferase, which expression is enhanced by the transcription factor. Cleavage of the fused substrate by γ-secretase will lead to expression of the reporter gene which can be monitored in appropriate assays. The γ-secretase activity can also be determined in cell-free in vitro asays where e.g., a cell lysate containing the γ-secretase complex is incubated with a suitable APP-derived substrate which is cleaved to the Abeta peptides. The amount of produced peptides can be determined with specific ELISA assays. Cell lines of neuronal origin secrete Abeta peptides which can be measured with the specific ELISA assay. Treatment with compounds which inhibit γ-secretase leads to a reduction of secreted Abeta thus providing a measure of inhibition.
The in vitro assay of γ-secretase activity uses a HEK293 membrane fraction as a source of γ-secretase and a recombinant APP substrate. Latter consist of the C-terminal 100 amino acids of human APP fused to a 6× Histidin tail for purification which is expressed in E. coli in a regulatable expression vector, e.g. pEt15. This recombinant protein corresponds to the truncated APP fragment which results after […] of the extracellular domain and which constitutes the γ-secretase substrate. […] Hek293 cells are mechanically disrupted and the microsomal fraction is isolated by differential centrifugation.

SMILES: COc1ccc(CN(C2CCCCNC2=O)S(=O)(=O)c2ccc(Br)cc2)cc1F (racemic) [Example 28, rac-4-Bromo-N-(3-fluoro-4-methoxy-benzyl)-N-(2-oxo-azepan-3-yl)-benzenesulfonamide]
- IC50 (table head prints none): 150 nM

SMILES: CC(C)C1CCNC(=O)C(N(Cc2ccc(C(=O)NC3CC3)cc2)S(=O)(=O)c2ccc(Cl)cc2)C1 (racemic) [Example 43, rac-4-{[(4-Chloro-benzenesulfonyl)-(5-isopropyl-2-oxo-azepan-3-yl)-amino]-methyl}-N-cyclopropyl-benzamide]
- IC50 (table head prints none): 30 nM

SMILES: COC(=O)c1ccc(CN(C2CCCCNC2=O)S(=O)(=O)c2ccc(Cl)cc2)cc1 (racemic) [Example 57, rac-4-{[(4-Chloro-benzenesulfonyl)-(2-oxo-azepan-3-yl)-amino]-methyl}-benzoic acid methyl ester]
- IC50 (table head prints none): 130 nM

SMILES: O=C(NC1CC1)c1ccc(CN(C2CCCCNC2=O)S(=O)(=O)c2ccc(Cl)cc2)cc1 (racemic) [Example 75, rac-4-{[(4-Chloro-benzenesulfonyl)-(2-oxo-azepan-3-yl)-amino]-methyl}-N-cyclopropyl-benzamide]
- IC50 (table head prints none): 190 nM

SMILES: COC(=O)c1ccc(CN(C2CC(C)(C)CCNC2=O)S(=O)(=O)c2ccc(Cl)cc2)cc1 (racemic) [Example 138, Rac-4-{[(4-Chloro-benzenesulfonyl)-(5,5-dimethyl-2-oxo-azepan-3-yl)-amino]-methyl}-benzoic acid methyl ester]
- IC50 (table head prints none): 10 nM

SMILES: CC1(C)CCNC(=O)C(N(Cc2ccc(C(=O)NCCF)cc2)S(=O)(=O)c2ccc(Cl)cc2)C1 (racemic) [Example 140, rac-4-{[(4-Chloro-benzenesulfonyl)-(5,5-dimethyl-2-oxo-azepan-3-yl)-amino]-methyl}-N-(2-fluoro-ethyl)-benzamide]
- IC50 (table head prints none): 20 nM

SMILES: CC1(C)CCNC(=O)C(N(Cc2ccc(C(=O)NCC(F)(F)F)cc2)S(=O)(=O)c2ccc(Cl)cc2)C1 (racemic) [Example 141, rac-4-{[(4-Chloro-benzenesulfonyl)-(5,5-dimethyl-2-oxo-azepan-3-yl)-amino]-methyl}-N-(2,2,2-trifluoro-ethyl)-benzamide]
- IC50 (table head prints none): 20 nM

SMILES: CC1(C)CCNC(=O)C(N(Cc2ccc(C(=O)N[C@@H]3C[C@@H]3F)cc2)S(=O)(=O)c2ccc(Cl)cc2)C1 (mixture of isomers) [Example 142, rac-4-{[(4-Chloro-benzenesulfonyl)-(5,5-dimethyl-2-oxo-azepan-3-yl)-amino]-methyl}-N-((1R,2S)-2-fluoro-cyclopropyl)-benzamide]
- IC50 (table head prints none): 20 nM

SMILES: CC1(C)CCNC(=O)C(N(Cc2ccc(C(=O)NCCO)cc2)S(=O)(=O)c2ccc(Cl)cc2)C1 (racemic) [Example 143, rac-4-{[(4-Chloro-benzenesulfonyl)-(5,5-dimethyl-2-oxo-azepan-3-yl)-amino]-methyl}-N-(2-hydroxy-ethyl)-benzamide]
- IC50 (table head prints none): 40 nM

SMILES: CC1(C)CCNC(=O)C(N(Cc2ccc(C(=O)NC3CCCC3)cc2)S(=O)(=O)c2ccc(Cl)cc2)C1 (racemic) [Example 144, rac-4-{[(4-Chloro-benzenesulfonyl)-(5,5-dimethyl-2-oxo-azepan-3-yl)-amino]-methyl}-N-cyclopentyl-benzamide]
- IC50 (table head prints none): 50 nM

SMILES: CNC(=O)c1ccc(CN(C2CC(C)(C)CCNC2=O)S(=O)(=O)c2ccc(Cl)cc2)cc1 (racemic) [Example 145, rac-4-{[(4-Chloro-benzenesulfonyl)-(5,5-dimethyl-2-oxo-azepan-3-yl)-amino]-methyl}-N-methyl-benzamide]
- IC50 (table head prints none): 10 nM

SMILES: CC1(C)CCNC(=O)C(N(Cc2ccc(C(N)=O)cc2)S(=O)(=O)c2ccc(Cl)cc2)C1 (racemic) [Example 146, rac-4-{[(4-Chloro-benzenesulfonyl)-(5,5-dimethyl-2-oxo-azepan-3-yl)-amino]-methyl}-benzamide]
- IC50 (table head prints none): 20 nM

SMILES: CC1(C)CCNC(=O)C(N(Cc2ccc(C(=O)NCc3ccccc3)cc2)S(=O)(=O)c2ccc(Cl)cc2)C1 (racemic) [Example 147, rac-N-Benzyl-4-{[(4-chloro-benzenesulfonyl)-(5,5-dimethyl-2-oxo-azepan-3-yl)-amino]-methyl}-benzamide]
- IC50 (table head prints none): 20 nM

SMILES: COC(=O)CNC(=O)c1ccc(CN(C2CC(C)(C)CCNC2=O)S(=O)(=O)c2ccc(Cl)cc2)cc1 (racemic) [Example 148, rac-(4-{[(4-Chloro-benzenesulfonyl)-(5,5-dimethyl-2-oxo-azepan-3-yl)-amino]-methyl}-benzoylamino)-acetic acid methyl ester]
- IC50 (table head prints none): 20 nM

SMILES: CC1(C)CCNC(=O)C(N(Cc2ccc(C(=O)NCCN3CCOCC3)cc2)S(=O)(=O)c2ccc(Cl)cc2)C1 (racemic) [Example 149, rac-4-{[(4-Chloro-benzenesulfonyl)-(5,5-dimethyl-2-oxo-azepan-3-yl)-amino]-methyl}-N-(2-morpholin-4-yl-ethyl)-benzamide]
- IC50 (table head prints none): 150 nM

SMILES: CC1(C)CCNC(=O)C(N(Cc2ccc(-c3nn[nH]n3)cc2)S(=O)(=O)c2ccc(Cl)cc2)C1 (racemic) [Example 150, rac-4-Chloro-N-(5,5-dimethyl-2-oxo-azepan-3-yl)-N-[4-(2H-tetrazol-5-yl)-benzyl]-benzenesulfonamide]
- IC50 (table head prints none): 100 nM

SMILES: CC(=O)Nc1ccc(CN(C2CC(C)(C)CCNC2=O)S(=O)(=O)c2ccc(Cl)cc2)cc1 (racemic) [Example 152, rac-N-(4-{[(4-Chloro-benzenesulfonyl)-(5,5-dimethyl-2-oxo-azepan-3-yl)-amino]-methyl}-phenyl)-acetamide]
- IC50 (table head prints none): 20 nM

SMILES: CCOC(=O)CC(=O)Nc1ccc(CN(C2CCCCNC2=O)S(=O)(=O)c2ccc(Cl)cc2)cc1 (racemic) [Example 165, Rac-N-(4-{[(4-Chloro-benzenesulfonyl)-(2-oxo-azepan-3-yl)-amino]-methyl}-phenyl)-malonamic acid ethyl ester]
- IC50 (table head prints none): 270 nM

SMILES: O=C1NCCCCC1N(Cc1ccc(C(F)F)cc1)S(=O)(=O)c1ccc(Cl)cc1 (racemic) [Example 172, Rac-4-Chloro-N-(4-difluoromethyl-benzyl)-N-(2-oxo-azepan-3-yl)-benzenesulfonamide]
- IC50 (table head prints none): 230 nM

SMILES: COC(=O)c1ccc(CN(C2CCCCNC2=O)S(=O)(=O)c2ccc(Cl)cc2)c(F)c1 (racemic) [Example 203, rac-4-{[(4-Chloro-benzenesulfonyl)-(2-oxo-azepan-3-yl)-amino]-methyl}-3-fluoro-benzoic acid methyl ester]
- IC50: 190 nM

SMILES: NC(=O)c1ccc(CN([C@@H]2CCCCNC2=O)S(=O)(=O)c2ccc(Cl)cc2)cc1 [Example 2, 4-{[(4-Chloro-benzenesulfonyl)-((R)-2-oxo-azepan-3-yl)-amino]-methyl}-benzamide]
- IC50 (table head prints none): 150 nM

SMILES: CC(C)C1CCNC(=O)C(N(Cc2ccc(C(N)=O)cc2)S(=O)(=O)c2ccc(Cl)cc2)C1 (stereo not drawn) [Example 4, 4-{[(4-Chloro-benzenesulfonyl)-(5-isopropyl-2-oxo-azepan-3-yl)-amino]-methyl}-benzamide]
- IC50 (table head prints none): 260 nM

SMILES: COC(=O)c1ccc(CN([C@@H]2CCCCNC2=O)S(=O)(=O)c2ccc(Cl)cc2)c(F)c1 [Example 34, 4-{[(4-Chloro-benzenesulfonyl)-((R)-2-oxo-azepan-3-yl)-amino]-methyl}-3-fluoro-benzoic acid methyl ester]
- IC50 (table head prints none): 140 nM

SMILES: CCOC(=O)c1ccc(CN([C@@H]2CCCCNC2=O)S(=O)(=O)c2ccc(Cl)cc2)cc1 [Example 35, 4-{[(4-Chloro-benzenesulfonyl)-((R)-2-oxo-azepan-3-yl)-amino]-methyl}-benzoic acid ethyl ester]
- IC50 (table head prints none): 90 nM

SMILES: COC(=O)c1ccc(C(C)N([C@@H]2CCCCNC2=O)S(=O)(=O)c2ccc(Cl)cc2)cc1 (stereo partly drawn) [Example 41, 4-{1-[(4-Chloro-benzenesulfonyl)-((R)-2-oxo-azepan-3-yl)-amino]-ethyl}-benzoic acid methyl ester]
- IC50 (table head prints none): 200 nM

SMILES: O=C1NCCCC[C@H]1N(Cc1ccc(-c2ncn[nH]2)cc1F)S(=O)(=O)c1ccc(Cl)cc1 [Example 56, 4-Chloro-N-[2-fluoro-4-(2H-[1,2,4]triazol-3-yl)-benzyl]-N-((R)-2-oxo-azepan-3-yl)-benzenesulfonamide]
- IC50 (table head prints none): 80 nM

SMILES: COc1ccc(CN([C@@H]2CCCCNC2=O)S(=O)(=O)c2ccc(Cl)cc2)c(F)c1 [Example 68, 4-Chloro-N-(2-fluoro-4-methoxy-benzyl)-N-((R)-2-oxo-azepan-3-yl)-benzenesulfonamide]
- IC50 (table head prints none): 120 nM

SMILES: O=C(NC1CC1)c1ccc(CN([C@@H]2CCCCNC2=O)S(=O)(=O)c2ccc(C(F)(F)F)cc2)cc1 [Example 106, N-Cyclopropyl-4-{[((R)-2-oxo-azepan-3-yl)-(4-trifluoromethyl-benzenesulfonyl)-amino]-methyl}-benzamide]
- IC50 (table head prints none): 260 nM

SMILES: O=C(NC1CC1)c1ccc(CN([C@@H]2CCCCNC2=O)S(=O)(=O)c2ccc(Br)cc2)cc1 [Example 107, N-Cyclopropyl-4-{[((R)-2-oxo-azepan-3-yl)-(4-bromo-benzenesulfonyl)-amino]-methyl}-benzamide]
- IC50 (table head prints none): 290 nM

SMILES: CC1(C)CCNC(=O)C(N(Cc2ccc(C(=O)NC3CC3)cc2)S(=O)(=O)c2ccc(Cl)cc2)C1 (stereo not drawn) [Example 109, 4-{[(4-Chloro-benzenesulfonyl)-(5,5-dimethyl-2-oxo-azepan-3-yl)-amino]-methyl}-N-cyclopropyl-benzamide]
- IC50 (table head prints none): 280 nM

— patent US7253158B2, “Sulfonamides” (Hoffmann-La Roche Inc., priority 2004, dated 2007)
